Laboratory results: patent publication US20240325328A1, “TREATMENT OF BRAIN […] CNS […] ILLUDINS OR HYDROXYLUREAMETHYL ACYLFULVENE” (Lantern Pharma Inc., priority 2021, published 2024)

Assays:
[1] = Apparent BBB permeability in 3D in vitro blood brain barrier model; assay type: in vitro ADME, human; conditions: human, 3D BBB model
From the text: (§1) Hydroxy UreaMethyl Acylfulvene having a negative chirality or LP-184 permeates the blood brain barrier in vitro 3D model, which closely recapitulates the human blood brain barrier. This model mimics transport properties of the BBB due to the formation of tight junctions, higher expression of specific carriers, and/or great cell viability. This 3D in vitro model of the BBB created by co-culturing brain endothelial cells, with pericytes and astrocytes layered in an insert, improves endothelial cell polarization, and enhances the formation of tight junctions, provides better endothelial cell-to-cell contact that is important for barrier development, and prevents the dilution of secreted neurotrophic factors. These conditions collectively lead to the development of an in vitro model that mimics the BBB.
(§2) This assay leverages the novel 3D BBB model that allows studying both compound transport across the barrier as well as the effect of compounds on the structure and function of the BBB. […] LP-184 was as effective as the standard of care drug TMZ in penetrating the blood brain barrier. Apparent BBB permeability measured for TMZ was 1.72*10^−4 cm/s at 30 minutes and for LP-184 was 1.53*10^−4 cm/s at 30 minutes (FIG. 1).

[2] = system: blood brain barrier in vitro 3D model (co-cultured brain endothelial cells, pericytes and astrocytes); experiment: as above; assay type: in vitro ADME, human; conditions: 3D BBB model, at 30 minutes
From the text: as §1, §2

[3] = system: blood brain barrier in vitro 3D model (co-cultured brain endothelial cells, pericytes and astrocytes); experiment: Impact on cell viability and BBB integrity in 3D BBB model; assay type: cell-based, human; conditions: 3D BBB model, compound treatment
From the text: as §1, §2

[4] = Pharmacokinetics of LP-184 in plasma, normal brain and brain tumor; assay type: in vivo, mice
[5] = system: 3D models of patient-derived xenograft (PDX) derived brain metastases of primary lung and breast cancers; experiment: Potency in 3D models of PDX-derived brain metastases; assay type: cell-based; conditions: 72-hour treatment period, various brain metastasis models, range over models and testing conditions
[6] = Contralateral Normal Brain, 4 mg/kg IV
[7] = Peritumoral Normal Brain, 4 mg/kg IV

Cn1nnc2c(C(N)=O)ncn2c1=O [TMZ, Temozolomide, reference compound]
Papp at 30 min [1]: 1720 nm/s

CC1=C(CN(O)C(N)=O)C2=C(C)C3(CC3)[C@@](C)(O)C(=O)C2=C1 [LP-184, Hydroxy UreaMethyl Acylfulvene]
Apparent BBB permeability [2]: 1.53*10^−4 cm/s
BBB integrity [3]: BBB integrity was not compromised
Impact on cell viability [3]: insignificant impact on cell viability
Brain Tissue/Plasma Ratio ([4]; Brain Tumor, 4 mg/kg IV): 0.200
Half-Life ([4]; Brain Tumor, 4 mg/kg IV): 16.9 min
Tmax ([4]; Brain Tumor, 4 mg/kg IV): 5 min
Brain Tissue/Plasma Ratio [4, 6]: 0.077
Half-Life [4, 6]: 26.6 min
Tmax [4, 6]: 15 min
AUC0-t ([4]; Contralateral Normal Brain, 4 mg/kg IV, Mean ± SEM): 123 ± 15.9 ng·h/g
Brain Tissue/Plasma Ratio [4, 7]: 0.103
Half-Life [4, 7]: 23 min
Tmax [4, 7]: 15 min
AUC0-t ([4]; Peritumoral Normal Brain, 4 mg/kg IV, Mean ± SEM): 165 ± 11.6 ng·h/g
Half-Life ([4]; Plasma, 4 mg/kg IV): 14.2 min
Tmax ([4]; Plasma, 4 mg/kg IV): 5 min
AUC0-t ([4]; Plasma, 4 mg/kg IV, Mean ± SEM): 1.592 ± 0.0487 µg·h/mL
Cmax ([4]; Plasma, 4 mg/kg IV, Mean ± SEM): 3438 ± 125^ ng/ml
brain tumor exposure relative to plasma ([4]; based on AUC): ~20%
brain tumor exposure compared to normal brain ([4]; higher in brain tumor): ~2 fold
clearance ([4]; mice with tumors): 2.389 L/h/kg
clearance ([4]; non-tumored mice): 5.284 L/h/kg
IC50 [5]: 0.088 to 4.28 µM
